Target: T1, SmaR (Serratia marcescens, UniProt Q14RS3)
T1 construct: pure recombinant protein
Assay: microscale thermophoresis
Format: binding

T1 sequence (Q14RS3 1-248): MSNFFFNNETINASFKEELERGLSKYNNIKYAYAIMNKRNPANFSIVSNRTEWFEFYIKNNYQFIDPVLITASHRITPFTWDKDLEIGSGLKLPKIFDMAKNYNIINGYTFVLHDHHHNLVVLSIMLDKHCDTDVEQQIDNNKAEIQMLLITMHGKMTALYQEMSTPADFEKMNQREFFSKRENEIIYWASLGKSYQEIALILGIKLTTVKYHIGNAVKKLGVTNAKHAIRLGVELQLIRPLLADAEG

## Cc1ccc(/C=C/[N+](=O)[O-])cc1 [compound 28, (E)‐1‐methyl‐4‐(2‐nitrovinyl)benzene]
  Kd: 38.9 µM

Reference: paper PMC11442132, “Discovery of β‐nitrostyrene derivatives as potential quorum sensing inhibitors for biofilm inhibition and antivirulence factor therapeutics against Serratia marcescens” (mLife, 2024)
